Results as given in ChEMBL document CHEMBL1201862, “PubChem BioAssay data set” (2004).
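1) Cells in 96-well plates. 2) Compound, 48 h, 5 concentrations. 3) Linear interpolation between surrounding doses. 4) Unreached endpoint = highest concentration. Abbreviation: GI50, concentration required for 50% inhibition of growth.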 Calls of active or inactive are those of the source. Rule as the data show it: active = GI50 up to about 1.1 µM and inactive = higher.

What was measured:
Assay in all cases: NCI tumour cell line growth inhibition, 48 h
[1] = system: A549
[2] = system: ACHN
[3] = system: DMS-273
[4] = system: HCT-15
[5] = system: HL-60
[6] = system: HT-29
[7] = system: LXFL 529
[8] = system: M14
[9] = system: Malme-3M
[10] = system: OVCAR-8
[11] = system: RXF 393
[12] = system: SF-539
[13] = system: SK-OV-3
[14] = system: HCT-116
[15] = system: SNB-75
[16] = system: BT-549
[17] = system: DU-145
[18] = system: MDA-MB-231
[19] = system: MDA-N
[20] = system: NCI/ADR-RES

O=C(O)C1=C(O)C(C(=O)O)C23CCCCCCCCCCC12C(C(=O)O)C(O)=C3C(=O)O (stereo not drawn)
GI50 [1]: > 100 µM (inactive) | GI50 [2]: > 100 µM (inactive) | GI50 [3]: > 100 µM (inactive) | GI50 [4]: > 100 µM | GI50 [5]: > 100 µM (inactive) | GI50 [6]: > 100 µM (inactive) | GI50 [7]: > 100 µM (inactive) | GI50 [8]: > 100 µM (inactive) | GI50 [9]: > 100 µM (inactive) | GI50 [10]: > 100 µM (inactive) | GI50 [11]: > 100 µM (inactive) | GI50 [12]: > 100 µM (inactive) | GI50 [13]: > 100 µM (inactive)

C#CCN(N=O)C(=O)NCCCCC(NC(C)=O)C(=O)NCc1ccccc1 (stereo not drawn)
GI50 [1]: > 100 µM (inactive) | GI50 [2]: > 100 µM (inactive) | GI50 [14]: > 100 µM (inactive) | GI50 [4]: > 100 µM | GI50 [6]: > 100 µM (inactive) | GI50 [7]: > 100 µM (inactive) | GI50 [8]: > 100 µM (inactive) | GI50 [9]: > 100 µM (inactive) | GI50 [10]: > 100 µM (inactive) | GI50 [11]: > 100 µM (inactive) | GI50 [12]: > 100 µM (inactive) | GI50 [13]: > 100 µM (inactive) | GI50 [15]: > 100 µM (inactive)

CC1(S)CC2C(CC1Sc1ccccc1)C2(C)C (stereo not drawn)
GI50 [1]: > 100 µM (inactive) | GI50 [2]: > 100 µM (inactive) | GI50 [3]: > 100 µM (inactive) | GI50 [14]: > 100 µM (inactive) | GI50 [4]: > 100 µM | GI50 [5]: > 100 µM (inactive) | GI50 [6]: > 100 µM (inactive) | GI50 [7]: > 100 µM (inactive) | GI50 [8]: > 100 µM (inactive) | GI50 [9]: > 100 µM (inactive) | GI50 [10]: > 100 µM (inactive) | GI50 [12]: > 100 µM (inactive) | GI50 [13]: > 100 µM (inactive) | GI50 [15]: > 100 µM (inactive)

CC(C)c1cccc(C(C)C)c1NC(=O)C(=O)C(C(=O)c1ccc2ccccc2c1)C1OC(=O)c2ccccc21 (stereo not drawn)
GI50 [1]: > 100 µM (inactive) | GI50 [2]: > 100 µM (inactive) | GI50 [14]: > 100 µM (inactive) | GI50 [4]: > 100 µM | GI50 [6]: > 100 µM (inactive) | GI50 [7]: > 100 µM (inactive) | GI50 [8]: > 100 µM (inactive) | GI50 [9]: > 100 µM (inactive) | GI50 [10]: > 10 µM (inactive) | GI50 [11]: 11 µM (inactive) | GI50 [12]: > 100 µM (inactive) | GI50 [13]: > 100 µM (inactive)

Cc1ccc(/C=C/C(=O)C(C)C)cc1
GI50 [1]: > 100 µM (inactive) | GI50 [2]: 83.8 µM (inactive) | GI50 [6]: 37.3 µM (inactive) | GI50 [7]: 33.8 µM (inactive) | GI50 [8]: 58.7 µM (inactive) | GI50 [10]: 96.8 µM (inactive) | GI50 [11]: 39.8 µM (inactive) | GI50 [13]: 74.3 µM (inactive) | GI50 [15]: 35.2 µM (inactive)

COC(=O)c1cccc2c3ccccc3c3ccccc3c12
GI50 [1]: 44.5 µM (inactive) | GI50 [2]: 79.3 µM (inactive) | GI50 [3]: 33.3 µM (inactive) | GI50 [14]: 37.8 µM (inactive) | GI50 [4]: 35.2 µM | GI50 [5]: 23.3 µM (inactive) | GI50 [6]: 29.5 µM (inactive) | GI50 [7]: 28 µM (inactive) | GI50 [8]: 28.5 µM (inactive) | GI50 [9]: 73.5 µM (inactive) | GI50 [10]: 24.4 µM (inactive) | GI50 [11]: 24 µM (inactive) | GI50 [13]: 37.2 µM (inactive) | GI50 [15]: 26.9 µM (inactive)

O=[N+]([O-])c1ccc(S(=O)(=O)N=Ic2ccccc2)cc1
GI50 [1]: > 100 µM (inactive) | GI50 [2]: > 100 µM (inactive) | GI50 [16]: > 100 µM (inactive) | GI50 [17]: > 100 µM (inactive) | GI50 [14]: > 100 µM (inactive) | GI50 [4]: > 100 µM | GI50 [5]: > 100 µM (inactive) | GI50 [6]: > 100 µM (inactive) | GI50 [8]: > 100 µM (inactive) | GI50 [18]: > 100 µM (inactive) | GI50 [19]: > 100 µM (inactive) | GI50 [9]: > 100 µM (inactive) | GI50 [20]: > 100 µM (inactive) | GI50 [10]: > 100 µM (inactive) | GI50 [11]: > 100 µM (inactive) | GI50 [12]: > 100 µM (inactive) | GI50 [13]: > 100 µM (inactive) | GI50 [15]: > 100 µM (inactive)

CC1(C)C(=O)CCC(=O)C(C)(C)C2=CC=C(O2)C(C)(C)C(=O)CCC(=O)C(C)(C)C2=CC=C1O2
GI50 [1]: > 100 µM (inactive) | GI50 [2]: > 100 µM (inactive) | GI50 [3]: > 100 µM (inactive) | GI50 [14]: > 100 µM (inactive) | GI50 [4]: > 100 µM | GI50 [5]: > 100 µM (inactive) | GI50 [6]: > 100 µM (inactive) | GI50 [7]: > 100 µM (inactive) | GI50 [9]: > 100 µM (inactive) | GI50 [10]: > 100 µM (inactive) | GI50 [11]: > 100 µM (inactive) | GI50 [13]: > 100 µM (inactive)

CCOC(=O)Cc1c(Cc2[nH]c(C(=O)OCc3ccccc3)c(CC(=O)OCC)c2CC(=O)OCC)[nH]c(C(=O)OCc2ccccc2)c1CC(=O)OCC
GI50 [1]: > 100 µM (inactive) | GI50 [2]: > 100 µM (inactive) | GI50 [14]: > 100 µM (inactive) | GI50 [4]: > 100 µM | GI50 [5]: > 100 µM (inactive) | GI50 [6]: > 100 µM (inactive) | GI50 [7]: > 100 µM (inactive) | GI50 [8]: > 100 µM (inactive) | GI50 [9]: > 100 µM (inactive) | GI50 [10]: > 100 µM (inactive) | GI50 [12]: > 100 µM (inactive) | GI50 [13]: > 100 µM (inactive) | GI50 [15]: > 100 µM (inactive)

S=C1NCCN1
GI50 [1]: > 100 µM (inactive) | GI50 [2]: > 100 µM (inactive) | GI50 [3]: > 100 µM (inactive) | GI50 [14]: > 100 µM (inactive) | GI50 [4]: > 100 µM | GI50 [5]: > 100 µM (inactive) | GI50 [6]: > 100 µM (inactive) | GI50 [7]: > 100 µM (inactive) | GI50 [8]: > 100 µM (inactive) | GI50 [9]: > 100 µM (inactive) | GI50 [10]: > 100 µM (inactive) | GI50 [12]: > 100 µM (inactive) | GI50 [13]: > 100 µM (inactive) | GI50 [15]: > 100 µM (inactive)

COc1ccc(C(=O)C(c2ccc(OC)cc2)C2(O)C(=O)Nc3ccccc32)cc1 (stereo not drawn)
GI50 [1]: > 100 µM (inactive) | GI50 [2]: > 100 µM (inactive) | GI50 [3]: > 100 µM (inactive) | GI50 [14]: > 100 µM (inactive) | GI50 [4]: > 100 µM | GI50 [5]: 98.6 µM (inactive) | GI50 [6]: 94.6 µM (inactive) | GI50 [7]: > 100 µM (inactive) | GI50 [8]: > 100 µM (inactive) | GI50 [9]: > 100 µM (inactive) | GI50 [12]: > 100 µM (inactive) | GI50 [13]: > 100 µM (inactive) | GI50 [15]: 67.5 µM (inactive)

COC(=O)C1=C(C)N(NC(=O)c2ccccc2)C(C)(O)C12CCOC2=O (stereo not drawn)
GI50 [1]: > 100 µM (inactive) | GI50 [2]: > 100 µM (inactive) | GI50 [3]: > 100 µM (inactive) | GI50 [14]: > 100 µM (inactive) | GI50 [4]: > 100 µM | GI50 [5]: > 100 µM (inactive) | GI50 [6]: > 100 µM (inactive) | GI50 [7]: > 100 µM (inactive) | GI50 [8]: > 100 µM (inactive) | GI50 [9]: 0.0475 µM (active) | GI50 [10]: > 100 µM (inactive) | GI50 [12]: > 100 µM (inactive) | GI50 [13]: > 100 µM (inactive)

CCc1cccc(C)c1NC(=O)C(=O)CC(=O)c1ccc(Cl)s1
GI50 [1]: > 100 µM (inactive) | GI50 [2]: > 100 µM (inactive) | GI50 [14]: > 100 µM (inactive) | GI50 [4]: > 100 µM | GI50 [5]: > 100 µM (inactive) | GI50 [6]: > 100 µM (inactive) | GI50 [7]: > 100 µM (inactive) | GI50 [8]: > 100 µM (inactive) | GI50 [9]: > 100 µM (inactive) | GI50 [10]: > 100 µM (inactive) | GI50 [12]: > 100 µM (inactive) | GI50 [13]: > 100 µM (inactive) | GI50 [15]: > 100 µM (inactive)

CC(C)[Si](OCC1CC(C#N)OC(C)(C)O1)(C(C)C)C(C)C (stereo not drawn)
GI50 [1]: 30.8 µM (inactive) | GI50 [2]: 16 µM (inactive) | GI50 [3]: 19.2 µM (inactive) | GI50 [14]: 16.5 µM (inactive) | GI50 [4]: 27.8 µM | GI50 [5]: 13 µM (inactive) | GI50 [6]: 14.6 µM (inactive) | GI50 [8]: 20 µM (inactive) | GI50 [9]: 22.9 µM (inactive) | GI50 [10]: 21.1 µM (inactive) | GI50 [11]: 17.1 µM (inactive) | GI50 [12]: 27.1 µM (inactive) | GI50 [13]: 21.3 µM (inactive) | GI50 [15]: 31.9 µM (inactive)

CN(C)CCNc1nc(-c2cccs2)cc(-c2cccs2)n1
GI50 [1]: 15.6 µM (inactive) | GI50 [3]: 10.8 µM (inactive) | GI50 [14]: 11.3 µM (inactive) | GI50 [4]: 15.9 µM | GI50 [6]: 7.5 µM (inactive) | GI50 [7]: 14.8 µM (inactive) | GI50 [8]: 12.4 µM (inactive) | GI50 [9]: 15.5 µM (inactive) | GI50 [10]: 9.84 µM (inactive) | GI50 [11]: 14.6 µM (inactive) | GI50 [12]: 15.1 µM (inactive) | GI50 [13]: > 10 µM (inactive) | GI50 [15]: 23.8 µM (inactive)
